Results reported in patent US9730914B2, “3,5-diaminopyrazole kinase inhibitors” (Axikin Pharmaceuticals, Inc., priority 2014, dated 2017).

Columns and labels:
JAK2 = target: T1, JAK2 (Homo sapiens, UniProt O60674); test: Kinase competition binding assay (Kd, qPCR readout), JAK2; conditions: for Kd: Kd class, JAK2, read-out: JAK2 Activity Level; for RCK:JAK2 selectivity ratio: ratio Kd (JAK2): Kd(RCK)
T1 construct: made in house; host or cells: E. coli BL21-derived host (T7 phage) or HEK-293
Protocol: (§1) For most assays, kinase-tagged T7 phage strains were prepared in an E. coli host derived from the BL21 strain. E. coli were grown to log-phase and infected with T7 phage and incubated with shaking at 32° C. until lysis. The lysates were centrifuged and filtered to remove cell debris. The remaining kinases were produced in HEK-293 cells and subsequently tagged with DNA for quantitative PCR (qPCR) detection.
(§2) Streptavidin-coated magnetic beads were treated with biotinylated small molecule ligands for 30 minutes at room temperature to generate affinity resins for kinase assays. The liganded beads were blocked with excess biotin and washed with blocking buffer (SeaBlock (Pierce), 1% BSA, 0.05% Tween 20, 1 mM DTT) to remove unbound ligand and to reduce nonspecific binding. Binding reactions were assembled by combining kinases, liganded affinity beads, and test compounds in 1× binding buffer (20% SeaBlock, 0.17×PBS, 0.05% Tween 20, 6 mM DTT). All reactions were performed in polystyrene 96-well plates in a final volume of 0.135 mL. The assay plates were incubated at room temperature with shaking for 1 hour and the affinity beads were washed with wash buffer (1×PBS, 0.05% Tween 20). The beads were then re-suspended in elution buffer (1×PBS, 0.05% Tween 20, 0.5 μM non-biotinylated affinity ligand) and incubated at room temperature with shaking for 30 minutes. The kinase concentration in the eluates was measured by qPCR.
(§3) An 11-point 3-fold serial dilution of each test compound was prepared in 100% DMSO at 100× final test concentration and subsequently diluted to 1× in the assay (final DMSO concentration=1%). Most Kd values were determined using a compound top concentration=30,000 nM. If the initial Kd determined was <0.5 nM, (the lowest concentration tested), the measurement was repeated with a serial dilution starting at a lower top concentration. A more detailed description of this assay may be found in Fabian, M. A. et al. Nat. Biotechnol. 2005, 23, 329-336, which is incorporated herein in its entirety.
(§4) The biological results of inhibition of the kinase domain protein of RC kinase (RCK) and JAK2 and JAK3 are summarized in Tables 2 and 3, wherein A represents a Kd of <50 nM; B represents 50 nM<Kd<100 nM; C represents 100 nM<Kd<1000 nM; and D represents a Kd>1000 nM.
Additionally, RCK:JAK2 selectivity, as measured by the ratio Kd (JAK2): Kd(RCK) is represented as follows: A represents Kd (JAK2): Kd (RCK)>100; B represents 10<Kd(JAK2): Kd (RCK)<100; C represents 1<Kd (JAK2): Kd (RCK)<10; and D represents Kd(JAK2): Kd (RCK)<1.

JAK3 = target: T2, JAK3 (Homo sapiens, UniProt P52333); test: Kinase competition binding assay (Kd, qPCR readout), JAK3; conditions: for Kd: Kd class, JAK3, read-out: JAK3 Activity Level; for RCK:JAK3 selectivity ratio: ratio Kd (JAK3): Kd (RCK)
T2 construct: made in house; host or cells: E. coli BL21-derived host (T7 phage) or HEK-293
Protocol: as §1, §2, §3, §4
Similarly, RCK:JAK3 selectivity, as measured by the ratio Kd (JAK3): Kd (RCK) is represented as follows: A represents Kd (JAK3): Kd (RCK)>100; B represents 10<Kd (JAK3): Kd (RCK)<100; C represents 1<Kd (JAK3): Kd (RCK)<10; and D represents Kd (JAK3): Kd(RCK)<1.

[1] = target: T3, kinase domain protein of RC kinase (RCK) (Homo sapiens, UniProt Q56UN5); test: Kinase competition binding assay (Kd, qPCR readout), RC kinase; conditions: Kd class, read-out: RCK Activity Level
T3 construct: made in house; host or cells: E. coli BL21-derived host (T7 phage) or HEK-293
T3 sequence (Q56UN5 1061-1324 limits assumed): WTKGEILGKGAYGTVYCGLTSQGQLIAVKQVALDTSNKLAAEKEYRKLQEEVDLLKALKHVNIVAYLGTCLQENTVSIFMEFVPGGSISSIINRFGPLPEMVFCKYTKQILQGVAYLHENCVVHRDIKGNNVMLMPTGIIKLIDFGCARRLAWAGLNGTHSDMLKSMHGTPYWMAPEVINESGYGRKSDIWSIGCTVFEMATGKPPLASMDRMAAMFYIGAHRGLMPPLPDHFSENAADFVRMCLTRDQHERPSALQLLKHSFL
Protocol: as §1, §2, §3, §4

T2 sequence (P52333 811-1124 limits assumed): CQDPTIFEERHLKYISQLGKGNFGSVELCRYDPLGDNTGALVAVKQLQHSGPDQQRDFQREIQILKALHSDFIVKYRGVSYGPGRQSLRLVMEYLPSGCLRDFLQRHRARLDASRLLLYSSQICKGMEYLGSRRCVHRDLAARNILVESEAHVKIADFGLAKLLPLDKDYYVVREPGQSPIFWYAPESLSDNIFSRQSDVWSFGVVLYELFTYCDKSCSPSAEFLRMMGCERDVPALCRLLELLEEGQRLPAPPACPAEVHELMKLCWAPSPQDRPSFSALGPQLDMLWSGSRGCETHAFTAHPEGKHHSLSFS
T1 sequence (O60674 840-1132 limits assumed): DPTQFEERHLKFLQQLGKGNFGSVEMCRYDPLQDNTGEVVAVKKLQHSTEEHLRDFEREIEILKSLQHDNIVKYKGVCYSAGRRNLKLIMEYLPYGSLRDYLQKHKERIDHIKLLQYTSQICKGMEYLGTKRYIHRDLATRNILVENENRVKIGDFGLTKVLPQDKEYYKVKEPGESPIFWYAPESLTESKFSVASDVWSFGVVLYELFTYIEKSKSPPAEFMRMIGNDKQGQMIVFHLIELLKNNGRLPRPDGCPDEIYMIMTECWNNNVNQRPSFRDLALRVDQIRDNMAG

SMILES	Kd (JAK2) [nM]	Kd (JAK3) [nM]	Kd [1] [nM]	RCK:JAK2 selectivity ratio (JAK2)	RCK:JAK3 selectivity ratio (JAK3)
Cc1cc(Nc2n[nH]c(NCc3cc(C)c(O)c(C)c3)c2C(N)=O)cnc1N1CCN(C)CC1 [Compound 14, 5-((4-hydroxy-3,5-dimethylbenzyl)amino)-3-((5-methyl-6-(4-methylpiperazin-1-yl)pyridin-3-yl)amino)-1H-pyrazole-4-carboxamide]	> 1000	> 1000	> 1000	C (C represents 1<Kd (JAK2): Kd (RCK)<10)	B (B represents 10<Kd (JAK3): Kd (RCK)<100)
Cc1cc(Nc2n[nH]c(NCc3cc(C)c(O)c(C)c3)c2C(N)=O)cnc1N1CCN(C(C)C)CC1 [Compound 13, 5-((4-hydroxy-3,5-dimethylbenzyl)amino)-3-((6-(4-isopropylpiperazin-1-yl)-5-methylpyridin-3-yl)amino)-1H-pyrazole-4-carboxamide]	> 1000	> 1000	> 1000	B (B represents 10<Kd(JAK2): Kd (RCK)<100)	B (B represents 10<Kd (JAK3): Kd (RCK)<100)
Cc1cc(CNc2[nH]nc(Nc3ccc(N4CCN(C(C)C)CC4)cc3)c2C(N)=O)cc(C)c1O [Compound 1, 5-((4-hydroxy-3,5-dimethylbenzyl)amino)-3-((4-(4-isopropylpiperazin-1-yl)phenyl)amino)-1H-pyrazole-4-carboxamide]	100 to 1000	100 to 1000	< 50	A (A represents Kd (JAK2): Kd (RCK)>100)	A (A represents Kd (JAK3): Kd (RCK)>100)
Cc1cc(CNc2[nH]nc(Nc3ccc(N4CCCCC4)cc3)c2C(N)=O)cc(C)c1O [Compound 27, 5-((4-hydroxy-3,5-dimethylbenzyl)amino)-3-((4-(piperidin-1-yl)phenyl)amino)-1H-pyrazole-4-carboxamide]	> 1000	> 1000	100 to 1000	B (B represents 10<Kd(JAK2): Kd (RCK)<100)	B (B represents 10<Kd (JAK3): Kd (RCK)<100)
Cc1cc(CNc2[nH]nc(Nc3ccc(C(C)(C)C)cc3)c2C(N)=O)cc(C)c1O [Compound 21, 3-((4-(tert-butyl)phenyl)amino)-5-((4-hydroxy-3,5-dimethylbenzyl)amino)-1H-pyrazole-4-carboxamide]	> 1000	> 1000	> 1000	C (C represents 1<Kd (JAK2): Kd (RCK)<10)	–
Cc1cc(Nc2n[nH]c(NCc3cc(C)c(O)c(C)c3)c2C(N)=O)ccc1N1CCCCC1 [Compound 30, 5-((4-hydroxy-3,5-dimethylbenzyl)amino)-3-((3-methyl-4-(piperidin-1-yl)phenyl)amino)-1H-pyrazole-4-carboxamide]	> 1000	> 1000	50 to 100	B (B represents 10<Kd(JAK2): Kd (RCK)<100)	B (B represents 10<Kd (JAK3): Kd (RCK)<100)
Cc1cc(CNc2[nH]nc(Nc3ccc4[nH]ncc4c3)c2C(N)=O)cc(C)c1O [Compound 22, 3-((1H-indazol-5-yl)amino)-5-((4-hydroxy-3,5-dimethylbenzyl)amino)-1H-pyrazole-4-carboxamide]	> 1000	> 1000	100 to 1000	C (C represents 1<Kd (JAK2): Kd (RCK)<10)	B (B represents 10<Kd (JAK3): Kd (RCK)<100)
Cc1cc(CNc2[nH]nc(Nc3ccc(N4CCS(=O)(=O)CC4)cc3)c2C(N)=O)cc(C)c1O [Compound 32, 3-((4-(1,1-dioxidothiomorpholino)phenyl)amino)-5-((4-hydroxy-3,5-dimethylbenzyl)amino)-1H-pyrazole-4-carboxamide]	100 to 1000	100 to 1000	< 50	C (C represents 1<Kd (JAK2): Kd (RCK)<10)	B (B represents 10<Kd (JAK3): Kd (RCK)<100)

The next lines start with results.

Kd (JAK2) [nM]	Kd (JAK3) [nM]	Kd [1] [nM]	SMILES	RCK:JAK2 selectivity ratio (JAK2)	RCK:JAK3 selectivity ratio (JAK3)
> 1000	> 1000	> 1000	COc1cccc(Nc2n[nH]c(NCc3cc(C)c(O)c(C)c3)c2C(N)=O)c1 [Compound 52, 5-((4-hydroxy-3,5-dimethylbenzyl)amino)-3-((3-methoxyphenyl)amino)-1H-pyrazole-4-carboxamide]	C (C represents 1<Kd (JAK2): Kd (RCK)<10)	C (C represents 1<Kd (JAK3): Kd (RCK)<10)
< 50	< 50	< 50	COc1ccccc1C(=O)Nc1ccc(Nc2n[nH]c(NCc3ccc(O)cc3)c2C(N)=O)cc1 [reference compound]	B (B represents 10<Kd(JAK2): Kd (RCK)<100)	B (B represents 10<Kd (JAK3): Kd (RCK)<100)
100 to 1000	> 1000	< 50	Cc1cc(CNc2[nH]nc(Nc3ccc(N4CCSCC4)cc3)c2C(N)=O)cc(C)c1O [Compound 46, 5-((4-hydroxy-3,5-dimethylbenzyl)amino)-3-((4-thiomorpholinophenyl)amino)-1H-pyrazole-4-carboxamide]	B (B represents 10<Kd(JAK2): Kd (RCK)<100)	B (B represents 10<Kd (JAK3): Kd (RCK)<100)
< 50	< 50	< 50	NC(=O)c1c(Nc2ccc(N3CCOCC3)c(F)c2)n[nH]c1NCc1ccc(O)cc1 [reference compound]	–	–
< 50	< 50	< 50	Cc1cc(Nc2n[nH]c(NCc3ccc(O)cc3)c2C(N)=O)cnc1N1CCN(C)CC1 [reference compound]	D (D represents Kd(JAK2): Kd (RCK)<1)	C (C represents 1<Kd (JAK3): Kd (RCK)<10)
< 50	< 50	< 50	NC(=O)c1c(Nc2ccc(N3CCN(C(=O)N4CCCC4)CC3)cc2)n[nH]c1NCc1ccc(O)cc1 [reference compound]	D (D represents Kd(JAK2): Kd (RCK)<1)	C (C represents 1<Kd (JAK3): Kd (RCK)<10)
< 50	< 50	< 50	NC(=O)c1c(Nc2ccc(N3CCS(=O)(=O)CC3)cc2)n[nH]c1NCc1ccc(O)cc1 [reference compound]	D (D represents Kd(JAK2): Kd (RCK)<1)	D (D represents Kd (JAK3): Kd(RCK)<1)
< 50	< 50	< 50	NC(=O)c1c(Nc2ccc(N3CCOCC3)c(Cl)c2)n[nH]c1NCc1ccc(O)cc1 [reference compound]	D (D represents Kd(JAK2): Kd (RCK)<1)	C (C represents 1<Kd (JAK3): Kd (RCK)<10)
< 50	50 to 100	< 50	CC1CCN(c2ccc(Nc3n[nH]c(NCc4ccc(O)cc4)c3C(N)=O)cc2)CC1 [reference compound]	D (D represents Kd(JAK2): Kd (RCK)<1)	C (C represents 1<Kd (JAK3): Kd (RCK)<10)
> 1000	> 1000	100 to 1000	Cc1cc(CNc2[nH]nc(Nc3ccc(NC(=O)c4ccc(C(F)(F)F)cc4)cc3)c2C(N)=O)cc(C)c1O [Compound 62, 5-((4-hydroxy-3,5-dimethylbenzyl)amino)-3-((4-(4-(trifluoromethyl)benzamido)phenyl)amino)-1H-pyrazole-4-carboxamide]	B (B represents 10<Kd(JAK2): Kd (RCK)<100)	B (B represents 10<Kd (JAK3): Kd (RCK)<100)
